What was measured:
[1] = system: SH-SY5Y neuroblastoma cells; assay: Cell survival and proliferation (alamar Blue, CyQuant); type: cell-based, human; conditions: alamar Blue and CyQuant staining
Description: Aβ Measurement and Cell Viability Assay. Aβ was measured using an Aβ 1-42 human fluorimetric ELISA kit (Invitrogen) according to the manufacturer's instructions. Results were measured in a Biotek Synergy HT microplate reader. AlamarBlue and CyQuant NF (Invitrogen) according to the manufacturer's instructions.

[2] = system: PKC; assay: PKC activation over time in hippocampal primary neurons; type: cell-based, rat
Description: Cell culture. Rat hippocampal H19-7/IGF-IR cells (ATCC, Manassas, Va.) were plated onto poly-L-lysine coated plates and grown at 35° C. in DMEM/10% FCS for several days until about 50% coverage was obtained. The cells were then induced to differentiate into a neuronal phenotype by replacing the medium with 5 ml N2 medium containing 10 ng/ml basic fibroblast growth factor at 39° C. and grown in T-75 flasks at 37° C. Human SH-SY5Y neuroblastoma cells (ATCC) were cultured in 45% F12K/45% MEM/10% FCS. Mouse N2A neuroblastoma cells were cultured in DMEM/10% FCS without glutamine. Rat hippocampal neurons from 18-day-old embryonic Sprague Dawley rat brains were plated on 12- or 96-well plates coated with poly-D-lysine (Sigma-Aldrich, St. Louis, Mo.) in B-27 neurobasal medium containing 0.5 mM glutamine and 25 μM glutamate (Invitrogen, Carlsbad, Calif.) and cultured for three days in the medium without glutamate. The neuronal cells were grown under 5% CO2 in an incubator maintained at 37° C. for 14 days.
Protein kinase C assay. […] 0.5 Ci [^γ32P]ATP was added and ^32P-phosphoprotein formation was measured by adsorption onto phosphocellulose as described previously. […] PKC activity was measured in the absence of diacylglycerol and phosphatidylserine and PKC δ, ε, η, and μ were measured in the absence of added EGTA and CaCl2, as described by Kanno et al. (J. Lipid Res. 2006, vol. 47, pp. 1146-1150). […]

[3] = system: Endothelin-converting enzyme (ECE); assay: Endothelin-converting enzyme (ECE) activity in neuroblastoma cells; type: cell-based, human; conditions: bryostatin 0.27 nM, BR-101 1 μM, BR-111 1 μM
Description: ECE assay. […] neuroblastoma cells were incubated with bryostatin (0.27 nM), BR-101 (DCP-LA) (1 μM), and BR-111 (DHA-CP6) (1 μM). Endothelin-converting enzyme (ECE) was measured fluorimetrically using the method of Johnson and Ahn (Anal. Biochem. (2000), vol. 286, pp. 112-118). A sample of cell homogenate (20 μl) was incubated in 50 mM MES-KOH, pH 6.0, 0.01% C12E10 (polyoxyethylene-10-lauryl ether), and 15 μM McaBK2 (7-Methoxycoumarin-4-acetyl [Ala7-(2,4-Dinitrophenyl)Lys9]-bradykinin trifluoroacetate salt) (Sigma-Aldrich). After 60 min at 37° C., the reaction was quenched by adding trifluoroacetic acid to 0.5%. The sample was diluted to 1.4 ml with water and the fluorescence was measured at ex=334 nm, em=398 nm.

[4] = molecular target: T1, PKCε (Homo sapiens, UniProt Q02156); conditions: cited from earlier work
T1 construct: purchased Calbiochem
T1 sequence (Q02156 1-737): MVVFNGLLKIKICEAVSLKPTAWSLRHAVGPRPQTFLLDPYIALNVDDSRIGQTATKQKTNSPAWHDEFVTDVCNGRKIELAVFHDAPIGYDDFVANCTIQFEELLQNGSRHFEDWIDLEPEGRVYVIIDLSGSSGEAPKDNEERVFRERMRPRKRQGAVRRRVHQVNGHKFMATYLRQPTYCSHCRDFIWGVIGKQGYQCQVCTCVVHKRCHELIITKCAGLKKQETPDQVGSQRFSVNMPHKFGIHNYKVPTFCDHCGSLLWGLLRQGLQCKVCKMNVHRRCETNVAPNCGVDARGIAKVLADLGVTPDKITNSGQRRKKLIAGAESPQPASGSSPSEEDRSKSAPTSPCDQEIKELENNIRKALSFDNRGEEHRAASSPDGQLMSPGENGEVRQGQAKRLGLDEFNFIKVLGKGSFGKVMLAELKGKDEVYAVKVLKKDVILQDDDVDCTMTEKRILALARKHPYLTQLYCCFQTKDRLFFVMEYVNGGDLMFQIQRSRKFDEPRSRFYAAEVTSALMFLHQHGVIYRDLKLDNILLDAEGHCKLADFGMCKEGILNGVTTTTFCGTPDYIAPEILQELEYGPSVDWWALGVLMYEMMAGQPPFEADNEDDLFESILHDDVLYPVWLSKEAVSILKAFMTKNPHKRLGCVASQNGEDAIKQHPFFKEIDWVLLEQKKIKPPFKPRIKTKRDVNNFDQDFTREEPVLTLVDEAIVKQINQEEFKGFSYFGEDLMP

[5] = system: other PKC isoforms; assay: PKC isozyme specificity, other isoforms; type: biochemical; conditions: at 10 μM, data not shown
Description: Protein kinase C assay. Rat hippocampal cells were cultured and scraped in 0.2 ml homogenization buffer (20 mM Tris-HCl, pH 7.4, 50 mM NaF, 1 μg/ml leupeptin, and 0.1 mM PMSF) and homogenized by sonication a Marsonix microprobe sonicator (5 sec, 10W). To measure PKC, 10 μl of cell homogenate or purified PKC isozyme (purchased from Calbiochem) was incubated for 15 min at 37° C. in the presence of 10 μM histones, 4.89 mM CaCl2, 1.2 μg/μl phosphatidyl-L-serine, 0.18 μg/μl 1,2-dioctanoyl-sn-glycerol, 10 mM MgCl2, 20 mM HEPES (pH 7.4), 0.8 mM EDTA, 4 mM EGTA, 4% glycerol, 8 μg/ml aprotinin, 8 μg/ml leupeptin, and 2 mM benzamidine. 0.5 Ci [^γ32P]ATP was added and ^32P-phosphoprotein formation was measured by adsorption onto phosphocellulose as described previously. Nelson and Alkon, J. Neurochemistry (1995), vol. 65, pp. 2350-2357. For measurements of activation by BR-101 (DCP-LA) and similar compounds. PKC activity was measured in the absence of diacylglycerol and phosphatidylserine and PKC δ, ε, η, and μ were measured in the absence of added EGTA and CaCl2, as described by Kanno et al. (J. Lipid Res. 2006, vol. 47, pp. 1146-1150). […]
(§1) To determine their PKC isozyme specificity, fatty acid derivatives were preincubated with purified PKC for five minutes and the PKC activity was measured radiometrically.

[6] = molecular target: T1, PKCε; assay: PKC assay with purified PKCε; type: biochemical
Description: PKC assay. […] 0.5 micro Ci[^γ32P]ATP was added. […] The reaction was stopped by spotting the reaction mixtures on 1×2 cm strips of cellulose phosphate paper (Whatman P81) and immediately washing twice for 1 hr in 0.5% H3PO4. The cellulose phosphate strips were counted in a scintillation counter. In some experiments, phosphatidylserine, diacylglycerol, and/or calcium were removed. […]
as §1

CCCCCC1CC1CC1CC1CCCCCCCC(=O)O (centres unmarked) [BR-101, 2-[(2-pentylcyclopropyl)methyl]cyclopropaneoctanoic acid]
effect on cell survival [1]: no effect
effect on proliferation [1]: no effect
duration of elevated PKC [2]: remained elevated for at least four hours
ECE activity [3]: sustained increase
concentration of maximal effect on PKCε [4]: 100 nM
effects on the other PKC isoforms [5]: relatively small effects
activation of PKCε ([6]; 10 nM, lowest concentration tested): 2.75 fold
activation of PKCε ([6]; at 10 μM): effective activator

Source: US20120027687A1, “FATTY ACID PROTEIN KINASE C ACTIVATORS AND ANTICOAGULANT FOR THE TREATMENT OF STROKE” (priority 2010, published 2012)
